Experiment [1] concerns Aβtotal. The experiment is described as follows: Screening for γ-secretase-modulating activity in SKNBE2 cells carrying APP 695 wild type: Aβtotal in cell supernatant (Alphalisa). The note with it: overnight incubation. Type of experiment: cell-based. The protocol:
(§1) Pharmacology A) Screening of the Compounds of the Invention for γ-Secretase-Modulating Activity
(§2) Screening was carried out using SKNBE2 cells carrying the APP 695—wild type, grown in Dulbecco's Modified Eagle's Medium/Nutrient mixture F-12 (DMEM/NUT-mix F-12) (HAM) provided by Invitrogen (cat no. 10371-029) containing 5% Serum/Fe supplemented with 1% non-essential amino acids, 1-glutamine 2 mM, Hepes 15 mM, penicillin 50 U/ml (units/ml) en streptomycin 50 μg/ml. Cells were grown to near confluency.
(§3) The screening was performed using a modification of the assay as described in Citron et al (1997) Nature Medicine 3: 67. Briefly, cells were plated in a 384-well plate at 10^4 cells/well in Ultraculture (Lonza, BE12-725F) supplemented with 1% glutamine (Invitrogen, 25030-024), 1% non-essential amino acid (NEAA), penicillin 50 U/ml en streptomycin 50 μg/ml in the presence of test compound at different test concentrations. The cell/compound mixture was incubated overnight at 37° C., 5% CO2. The next day the media were assayed by two sandwich immuno-assays, for Aβ42 and Aβtotal.
(§4) Aβtotal and Aβ42 concentrations were quantified in the cell supernatant using the Aphalisa technology (Perkin Elmer). Alphalisa is a sandwich assay using biotinylated antibody attached to streptavidin coated donorbeads and antibody conjugated to acceptor beads. In the presence of antigen, the beads come into close proximity. The excitation of the donor beads provokes the release of singlet oxygen molecules that trigger a cascade of energy transfer in the acceptor beads, resulting in light emission. To quantify the amount of Aβ42 in the cell supernatant, monoclonal antibody specific to the C-terminus of Aβ42 (JRF/cAβ42/26) was coupled to the receptor beads and biotinylated antibody specific to the N-terminus of Aβ (JRF/AβN/25) was used to react with the donor beads. T quantify the amount of Aβtotal in the cell supernatant, monoclonal antibody specific to the N-terminus of Aβ (JRF/AβN/25) was coupled to the receptor beads and biotinylated antibody specific to the mid region of Aβ (biotinylated 4G8) was used to react with the donor beads.
(§5) To obtain the values reported in Table 3, the data are calculated as percentage of the maximum amount of amyloid Beta 42 measured in the absence of the test compound. The sigmoidal dose response curves were analyzed using non-linear regression analysis with percentage of the control plotted against the log concentration of the compound. A 4-parameter equation was used to determine the IC50.
On the technique in general: In Alpha technology, singlet oxygen from a donor bead excites a nearby acceptor bead.

For experiment [2], the system named is Aβ42. Put plainly: Screening for γ-secretase-modulating activity in SKNBE2 cells carrying APP 695 wild type: Aβ42 in cell supernatant (Alphalisa). The settings on record: overnight incubation. It is filed as cell-based. The protocol:
as §1, §2, §3, §4, §5

Setting [3] is: Homo sapiens, SKNBE2, SKNBE2 cells carrying APP 695 wild type.

Where a name gives a salt, the structure may show the parent alone. Some results are limits rather than exact numbers.

For orientation: IC50 means the concentration at which inhibition is half-maximal.

Regarding `COc1cc(Nc2nc3n(n2)CCC(c2ccccc2C(F)(F)F)C3)ccc1-c1ccnc(C)c1` (stereo not shown) [Compound 62, 5,6,7,8-tetrahydro-N-[3-methoxy-4-(2-methyl-4-pyridinyl)phenyl]-7-[2-(trifluoromethyl)phenyl]-[1,2,4]triazolo[1,5-a]pyridin-2-amine HCl], the IC50 in experiment [1] (Homo sapiens) is above 10 µM; in experiment [2] (setting [3]), 0.123 µM.
The corresponding values for `Cc1ncoc1-c1ccc(Nc2nc3c(-c4ccccc4C(F)(F)F)cccn3n2)cc1` [Compound 24, N-[4-(4-methyl-5-oxazolyl)phenyl]-8-[2-(trifluoromethyl)phenyl]-[1,2,4]triazolo[1,5-a]pyridin-2-amine] are above 10 µM and 0.126 µM.
The matching figures for `Cc1cc(-c2ccc(Nc3nc4n(n3)CCCC4c3cc(C(F)(F)F)ccc3C)cc2)ccn1` (stereo not shown) [Compound 144, 5,6,7,8-tetrahydro-N-[4-(2-methyl-4-pyridinyl)phenyl]-8-[2-methyl-5-(trifluoromethyl)phenyl]-[1,2,4]triazolo[1,5-a]pyridin-2-amine]: above 10 µM and 0.028 µM.
The corresponding values for `COc1nc(Nc2nc3n(n2)CCCC3c2ccc(F)cc2)ccc1-c1ccnc(C)c1` (stereo not shown) [Compound 16, 8-(4-fluorophenyl)-5,6,7,8-tetrahydro-N-(2-methoxy-2′-methyl[3,4′-bipyridin]-6-yl)-[1,2,4]triazolo[1,5-a]pyridin-2-amine] are above 10 µM and 0.363 µM.
For the compound `COc1cc(Nc2nc3n(n2)CCCC3c2ccc(F)cc2)ccc1-n1cnc(C)c1` (stereo not shown) [Compound 5, 8-(4-fluorophenyl)-5,6,7,8-tetrahydro-N-[3-methoxy-4-(4-methyl-1H-imidazol-1-yl)phenyl]-[1,2,4]triazolo[1,5-a]pyridin-2-amine], the half-inhibitory concentration (IC50) was above 10 µM in experiment [1] (Homo sapiens) and 0.018 µM in experiment [2] (setting [3]).
Take `COc1cc(Nc2nc3n(n2)CCCC3c2cccc(N(C)C)c2)ccc1-c1ccnc(C)c1` (stereo not shown) [Compound 111, 8-[3-(dimethylamino)phenyl]-5,6,7,8-tetrahydro-N-[3-methoxy-4-(2-methyl-4-pyridinyl)phenyl]-[1,2,4]triazolo[1,5-a]pyridin-2-amine]: the figures for the IC50 in experiment [1] (Homo sapiens) and in experiment [2] (setting [3]) were above 10 µM and 0.056 µM, respectively.
The matching figures for `COc1cc(Nc2nc3n(n2)CCCC3c2ccc(C(F)(F)F)cc2)ccc1-c1ccnc(C)c1` (stereo not shown) [Compound 89, 5,6,7,8-tetrahydro-N-[3-methoxy-4-(2-methyl-4-pyridinyl)phenyl]-8-[4-(trifluoromethyl)phenyl]-[1,2,4]triazolo[1,5-a]pyridin-2-amine]: 9.12 µM and 0.032 µM.
The corresponding values for `COc1cc(C(=O)Nc2nc3n(n2)CCCC3c2ccc(F)cc2)ccc1-n1cnc(C)c1` (stereo not shown) [Compound 36, N-[8-(4-fluorophenyl)-5,6,7,8-tetrahydro[1,2,4]triazolo[1,5-a]pyridin-2-yl]-3-methoxy-4-(4-methyl-1H-imidazol-1-yl)-benzamide] are above 10 µM and 0.501 µM.
For `COc1cccc(C2CCCn3nc(Nc4ccc(-c5ccnc(C)c5)c(OC)c4)nc32)c1` (stereo not shown) [Compound 40, 5,6,7,8-tetrahydro-N-[3-methoxy-4-(2-methyl-4-pyridinyl)phenyl]-8-(3-methoxyphenyl)-[1,2,4]triazolo[1,5-a]pyridin-2-amine.1.8 HCl.0.9H2O], the IC50 in experiment [1] is above 10 µM; in experiment [2] (SKNBE2 cells carrying APP 695 wild type), 0.039 µM.
On to `COc1cc(Nc2nc3n(n2)CCCC3c2ccccc2Cl)ccc1-n1cnc(C)c1` (stereo not shown) [Compound 27, 8-(2-chlorophenyl)-5,6,7,8-tetrahydro-N-[3-methoxy-4-(4-methyl-1H-imidazol-1-yl)phenyl]-[1,2,4]triazolo[1,5-a]pyridin-2-amine], for which the figures for the IC50 in experiment [1] (Homo sapiens) and in experiment [2] (setting [3]) were 8.51 µM and 0.014 µM, respectively.
The corresponding values for `Cc1cc(-c2ccc(Nc3nc4n(n3)CCOC4c3ccccc3C(F)(F)F)cc2F)ccn1` (stereo not shown) [Compound 86, N-[3-fluoro-4-(2-methyl-4-pyridinyl)phenyl]-5,6-dihydro-8-[2-(trifluoromethyl)phenyl]-8H-[1,2,4]triazolo[5,1-c][1,4]oxazin-2-amine] are above 10 µM and 0.048 µM.
